Results published in patent publication US11235976B2, “Nanocarbon-iron composite system as well as composition, preparation method and use thereof” (Chongqing Lummy Pharmaceutical Co., LTD, priority 2017, dated 2022).

System: murine liver cancer H22 cells
Test: Cell experiment, cell survival rate
Type: cell-based
Conditions: iron preparation alone 1.71 μg/mL, 48 h
Experimental: (§1) Cells growing in a log phase are collected, the concentration of the cell suspension is adjusted, 100 μL of cell suspension is added to each well and the cells are plated (edge wells are filled with sterile PBS) at a density of 1×10^3-10^4 cells/well. The cells are incubated for 24 hours at 37° C. under the condition of 5% CO2, a nanocarbon-iron solution having a concentration gradient (nanocarbon content: 125, 62.5, 15.63 and 3.91 μg/mL; and ferric ion content: 13.65, 6.83, 1.71 and 0.43 μg/mL) is added, and three sub-wells are set. Then the cells are incubated for 48 hours at 37° C. under the condition of 5% CO2. 10 μL of CCK8 solution is added to each well and then the cells are continuously incubated for 2 hours. The absorbance of each well is measured at OD=450 nm with the microplate reader. In addition, a negative control group, nanocarbon control groups having the same concentration and iron preparation control groups having the same concentration are set.
as §1, with “and 1” for “100”, “of a 6-well plate” for “and the cells are plated (edge wells are filled with sterile PBS)”, “3×10^4” for “1×10^3-10^4”, “1.71,” for “1.71 and”, “The” for “10 μL of CCK8 solution is added to each well and then the”, “trypsinized and counted.” for “continuously incubated for 2 hours. The absorbance of each well is measured at OD=450 nm with the microplate reader.”

Row | Substance | Cell Survival Rate
1 | ferrous gluconate | 100%

Same assay, conditions: iron preparation alone 6.83 μg/mL, 48 h

Row | Substance | Cell Survival Rate
2 | ferrous gluconate | 100%

Same assay, conditions: iron preparation alone 13.65 μg/mL, 48 h

Row | Substance | Cell Survival Rate
3 | ferrous gluconate | 96.14%

System: HCT116 colon cancer cells
Test: Cell experiment, cell survival rate
Type: cell-based
Conditions: iron preparation alone 0.43 μg/mL, 48 h
Experimental: as §1
as §1, with “and 1” for “100”, “of a 6-well plate” for “and the cells are plated (edge wells are filled with sterile PBS)”, “3×10^4” for “1×10^3-10^4”, “1.71,” for “1.71 and”, “The” for “10 μL of CCK8 solution is added to each well and then the”, “trypsinized and counted.” for “continuously incubated for 2 hours. The absorbance of each well is measured at OD=450 nm with the microplate reader.”

Row | Substance | Cell Survival Rate
4 | ferrous gluconate | 100%

Same assay, conditions: iron preparation alone 1.71 μg/mL, 48 h

Row | Substance | Cell Survival Rate
5 | ferrous gluconate | 100%

Same assay, conditions: iron preparation alone 6.83 μg/mL, 48 h

Row | Substance | Cell Survival Rate
6 | ferrous gluconate | 100%

Same assay, conditions: iron preparation alone 13.65 μg/mL, 48 h

Row | Substance | Cell Survival Rate
7 | ferrous gluconate | 98.67%

System: A549 lung cancer cells
Test: Cell experiment, cell survival rate
Type: cell-based
Conditions: iron preparation alone 0.43 μg/mL, 48 h
Experimental: as §1
as §1, with “and 1” for “100”, “of a 6-well plate” for “and the cells are plated (edge wells are filled with sterile PBS)”, “3×10^4” for “1×10^3-10^4”, “1.71,” for “1.71 and”, “The” for “10 μL of CCK8 solution is added to each well and then the”, “trypsinized and counted.” for “continuously incubated for 2 hours. The absorbance of each well is measured at OD=450 nm with the microplate reader.”

Row | Substance | Cell Survival Rate
8 | ferrous gluconate | 100%

Same assay, conditions: iron preparation alone 1.71 μg/mL, 48 h

Row | Substance | Cell Survival Rate
9 | ferrous gluconate | 100%

Same assay, conditions: iron preparation alone 6.83 μg/mL, 48 h

Row | Substance | Cell Survival Rate
10 | ferrous gluconate | 100%

Same assay, conditions: iron preparation alone 13.65 μg/mL, 48 h

Row | Substance | Cell Survival Rate
11 | ferrous gluconate | 97.31%

System: TPC-1 thyroid cancer cells
Test: Cell experiment, cell survival rate
Type: cell-based
Conditions: iron preparation alone 0.43 μg/mL, 48 h
Experimental: as §1
as §1, with “and 1” for “100”, “of a 6-well plate” for “and the cells are plated (edge wells are filled with sterile PBS)”, “3×10^4” for “1×10^3-10^4”, “1.71,” for “1.71 and”, “The” for “10 μL of CCK8 solution is added to each well and then the”, “trypsinized and counted.” for “continuously incubated for 2 hours. The absorbance of each well is measured at OD=450 nm with the microplate reader.”

Row | Substance | Cell Survival Rate
12 | ferrous gluconate | 100%

Same assay, conditions: iron preparation alone 1.71 μg/mL, 48 h

Row | Substance | Cell Survival Rate
13 | ferrous gluconate | 100%

Same assay, conditions: iron preparation alone 6.83 μg/mL, 48 h

Row | Substance | Cell Survival Rate
14 | ferrous gluconate | 100%

Same assay, conditions: iron preparation alone 13.65 μg/mL, 48 h

Row | Substance | Cell Survival Rate
15 | ferrous gluconate | 98.34%

System: MDA-MB-231 metastatic lymph nodes
Test: Lymph node metastasis inhibition experiment
Type: in vivo, nude mouse
Conditions: popliteal lymph nodes
Experimental: (§2) Cells growing in a log phase are collected, the concentration of the cell suspension is adjusted to 3×10^7 cells/mL, the cell suspension is inoculated subcutaneously into the left hind foot pads of each nude mouse at the inoculation volume of 0.05 mL (about 1.5×10^6 cells) and thus a lymph node metastasis mouse model is obtained. The mice are treated when the diameter of the tumor reaches 6-8 mm and there is no ulcer and necrosis. The mice are randomly divided into four groups (10 mice per group): a negative control group (0.9% sodium chloride injection), a nanocarbon control group, an iron preparation control group and a nanocarbon-iron suspension experimental group. 10 days after inoculation, the mice are killed, and popliteal lymph nodes are collected, weighed and fixed for pathological examination.

Row | Substance | Weight of Lymph Node
16 | ferrous gluconate | 40.19 ± 20.69 mg

System: HCT116 metastatic lymph nodes
Test: Lymph node metastasis inhibition experiment
Type: in vivo, nude mouse
Conditions: popliteal lymph nodes
Experimental: as §2

Row | Substance | Weight of Lymph Node
17 | ferrous gluconate | 55.18 ± 20.12 mg

System: TPC-1 metastatic lymph nodes
Test: Lymph node metastasis inhibition experiment
Type: in vivo, nude mouse
Conditions: popliteal lymph nodes
Experimental: as §2

Row | Substance | Weight of Lymph Node
18 | ferrous gluconate | 40.16 ± 9.03 mg

System: Hela metastatic lymph nodes
Test: Lymph node metastasis inhibition experiment
Type: in vivo, nude mouse
Conditions: popliteal lymph nodes
Experimental: as §2

Row | Substance | Weight of Lymph Node
19 | ferrous gluconate | 32.14 ± 21.36 mg

System: SKOV3 metastatic lymph nodes
Test: Lymph node metastasis inhibition experiment
Type: in vivo, nude mouse
Conditions: popliteal lymph nodes
Experimental: as §2

Row | Substance | Weight of Lymph Node
20 | ferrous gluconate | 33.57 ± 5.94 mg

System: A549 metastatic lymph nodes
Test: Lymph node metastasis inhibition experiment
Type: in vivo, nude mouse
Conditions: popliteal lymph nodes
Experimental: as §2

Row | Substance | Weight of Lymph Node
21 | ferrous gluconate | 47.58 ± 20.34 mg

System: SMMC-7721 metastatic lymph nodes
Test: Lymph node metastasis inhibition experiment
Type: in vivo, nude mouse
Conditions: popliteal lymph nodes
Experimental: as §2

Row | Substance | Weight of Lymph Node
22 | ferrous gluconate | 58.97 ± 19.63 mg

System: SGC-7901 metastatic lymph nodes
Test: Lymph node metastasis inhibition experiment
Type: in vivo, nude mouse
Conditions: popliteal lymph nodes
Experimental: as §2

Row | Substance | Weight of Lymph Node
23 | ferrous gluconate | 52.14 ± 17.43 mg

System: lymph node metastasis of 9 types of tumor cells
Test: Lymph node metastasis inhibition experiment, summary
Type: in vivo, mice
Conditions: not given
Experimental: as §2
Milky white and thick ascites is extracted from the H22 tumor-bearing mice, the concentration is adjusted to be 3×10^7 cells/mL, 0.05 mL of cell suspension (about 1.5×10^6 cells) is inoculated subcutaneously into the left hind foot pads of each Kunming mouse, and thus a lymph node metastasis mouse model is obtained. The mice are treated when the diameter of the tumor reaches 6-8 mm and there is no ulcer and necrosis. The mice are randomly divided into four groups (10 mice per group): a negative control group (0.9% sodium chloride injection), a nanocarbon control group, an iron preparation control group and a nanocarbon-iron suspension experimental group. 10 days after inoculation, the mice are killed, and popliteal lymph nodes are collected, weighed and fixed for pathological examination.

Row | Substance | inhibition effect on the metastatic lymph nodes
24 | ferrous gluconate | do not have an inhibition effect
